SMILES strings stand for the structures. A value given as a limit tells only on which side of the number the result lay.

Chain of Human immunodeficiency virus type 1 integrase (Q7ZJM1 whole entry): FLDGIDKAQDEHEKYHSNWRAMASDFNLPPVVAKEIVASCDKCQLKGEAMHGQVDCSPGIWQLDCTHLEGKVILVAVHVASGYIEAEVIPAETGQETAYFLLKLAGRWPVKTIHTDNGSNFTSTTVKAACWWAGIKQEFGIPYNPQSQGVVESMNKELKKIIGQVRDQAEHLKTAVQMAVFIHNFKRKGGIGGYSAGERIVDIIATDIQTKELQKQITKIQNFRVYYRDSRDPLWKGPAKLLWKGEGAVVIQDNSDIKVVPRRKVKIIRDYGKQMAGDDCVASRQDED

This assay has as its target Human immunodeficiency virus type 1 integrase (Human immunodeficiency virus 1, UniProt Q7ZJM1). In words: In vitro inhibitory activity against HIV-1 integrase.
As a reminder, the IC50 is the concentration at which inhibition is half-maximal. A low value points to higher potency. For the compound `O=C(/C=C/c1ccc(O)c(O)c1)OCCc1ccccc1` [CAFFEIC ACID PHENETHYL ESTER], the IC50 is 7 µM.

On to `COC(=O)c1ccc2c(O)c(O)ccc2c1`, for which the 50% inhibitory concentration (IC50) came to 8 µM.

`O=C(CCc1ccc(O)c(O)c1)OCCc1ccccc1` yielded an IC50 of 11 µM.

Consider `COc1ccc(/C=C/C(=O)OCCc2ccccc2)cc1OC`, for which the IC50 is above 100 µM.

Regarding `COc1ccc(/C=C/C(=O)OCCc2ccccc2)cc1O`, the IC50 worked out at 60 µM.

Regarding `O=C(/C=C/c1ccc(F)c(F)c1)OCCc1ccccc1`, the IC50 is above 100 µM.

The compound `O=C(/C=C/c1cc(O)c(O)c(O)c1)OCCc1ccccc1` came in with a concentration for half-maximal inhibition (IC50) of 2 µM.

As for `O=C(/C=C/c1cc(O)c(O)cc1O)OCCc1ccccc1`, the half-inhibitory concentration (IC50) is 55 µM.

On to `COC(=O)c1cc2ccc(O)c(O)c2cn1`, for which it took 14 µM to reach half-maximal inhibition (IC50).

`COC(=O)c1cc2cc(O)c(O)cc2cn1` showed an IC50 above 100 µM.

Regarding `COC(=O)/C=C/c1ccc(O)c(O)c1` [METHYLCAFFEATE], the IC50 was above 100 µM.

Turning to `O=C(/C=C/c1ccc(O)c(O)c1)OCc1ccccc1` [BENZYL CAFFEATE], the midpoint of inhibition, the IC50, lay at 9 µM.

As for `O=C(/C=C/c1ccc(O)c(O)c1)OCCc1ccc2ccccc2c1`, the IC50 turned out to be 44 µM. This IC50 is about 4.9-fold higher than that of the compound before.

With `COc1cc(/C=C/C(=O)OCCc2ccccc2)ccc1O`, the IC50 was above 100 µM.

Turning to `O=C(NCc1ccccc1)c1cc2ccc(O)c(O)c2cn1`, it took 75 µM to reach half-maximal inhibition (IC50).

In turn, `O=C(/C=C/c1ccc(O)c(O)c1)OCCCc1ccccc1` yielded a half-maximal inhibitory concentration (IC50) of 8 µM.

`O=C(CCc1ccccc1)NCCc1ccc(O)c(O)c1`: the IC50 was above 100 µM.

As to `N#C/C(=C\c1ccc(O)c(O)c1)C(N)=O`, the half-inhibitory concentration (IC50) was above 100 µM.

As for `O=C(OCCc1ccccc1)c1ccc2cc(O)c(O)cc2c1`, half-maximal inhibition (IC50) required 68 µM.

The compound `O=C(/C=C/c1ccc(O)c(O)c1)OCCc1cccc2ccccc12` displayed a half-inhibitory concentration (IC50) of 15 µM.

Consider `CCOC(=O)/C=C/c1ccc(O)c(O)c1` [ETHYL CAFFEATE], for which the 50% inhibitory concentration (IC50) was above 100 µM.

In turn, `O=C(NCc1ccccc1)c1cc2cc(O)c(O)cc2cn1` came in with a 50% inhibitory concentration (IC50) above 100 µM.

For `N=c1oc2c(O)c(O)ccc2cc1C(N)=O`, the half-maximal inhibitory concentration (IC50) was 93 µM.

As to `O=C(NCCc1ccccc1)c1cc2ccc(O)c(O)c2cn1`, the IC50 worked out at 40 µM.

In turn, `O=C(CCc1ccc(O)c(O)c1)NCCc1ccc(O)c(O)c1` yielded an IC50 of 3 µM.

The compound `O=C(/C=C/c1ccc(O)c(O)c1O)OCCc1ccccc1` registered an IC50 of 2 µM. This IC50 lies about 1.5-fold lower than the previous one.

For the compound `N=c1oc2cc(O)c(O)cc2cc1C(N)=O`, the 50% inhibitory concentration (IC50) is 48 µM.

`O=C(CCc1ccc(O)c(O)c1)NCCc1ccccc1` showed a half-inhibitory concentration (IC50) above 100 µM.

`O=C(Cc1ccccc1)NCCc1ccc(O)c(O)c1` registered a concentration for half-maximal inhibition (IC50) above 100 µM.

Regarding `O=C(CCc1ccc(O)c(O)c1)NCCc1cc(O)c(O)c(O)c1`, it took 4 µM to reach half-maximal inhibition (IC50).

`O=C(/C=C/c1cc(O)ccc1O)OCCc1ccccc1`: the half-maximal inhibitory concentration (IC50) is above 100 µM.

On to `O=C(OCCc1ccccc1)c1ccc2c(O)c(O)ccc2c1`, for which the half-maximal inhibitory concentration (IC50) is 18 µM.

(Values after ChEMBL document CHEMBL1128696, “Hydroxylated aromatic inhibitors of HIV-1 integrase” (J Med Chem, 1995).)
